Measured values from ChEMBL document CHEMBL1201862, “PubChem BioAssay data set” (2004).
Activity calls are given as the source filed them.

Tests used:
Streptokinase A = biological target: T1, Streptokinase A (Streptococcus pyogenes serotype M1, UniProt P10520); assay: viability-normalized secreted streptokinase activity reduction – plasminogen activation absorbance, OD405, dose response (AID 1914); format: functional, Streptococcus pyogenes M1 GAS;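 note: secreted streptokinase activity via plasminogen activation per viability signal from cell pellet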
T1 sequence (P10520 whole entry): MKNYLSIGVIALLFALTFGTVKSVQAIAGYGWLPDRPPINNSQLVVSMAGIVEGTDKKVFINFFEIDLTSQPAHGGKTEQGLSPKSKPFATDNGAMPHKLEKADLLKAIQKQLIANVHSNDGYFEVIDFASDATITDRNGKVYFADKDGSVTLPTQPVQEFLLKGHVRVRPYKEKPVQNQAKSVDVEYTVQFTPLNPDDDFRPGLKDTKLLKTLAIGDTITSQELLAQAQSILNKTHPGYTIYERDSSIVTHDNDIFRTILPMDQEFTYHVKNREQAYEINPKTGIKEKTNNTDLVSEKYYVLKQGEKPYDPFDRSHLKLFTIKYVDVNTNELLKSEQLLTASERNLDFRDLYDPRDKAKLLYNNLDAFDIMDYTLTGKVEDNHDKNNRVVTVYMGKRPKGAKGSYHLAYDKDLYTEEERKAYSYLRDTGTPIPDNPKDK

Fatty acid synthase [1] = biological target: T2, Fatty acid synthase (Homo sapiens, UniProt P49327); assay: inhibition of human FAS-TE enzyme activity – biochemical, endpoint fluorescence intensity, uHTS hits, dose response (AID 624327); format: functional;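 note: fluorescence from hydrolysis of an O-methyl fluorescein acyl ester substrate by the enzyme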
T2 sequence (P49327 whole entry): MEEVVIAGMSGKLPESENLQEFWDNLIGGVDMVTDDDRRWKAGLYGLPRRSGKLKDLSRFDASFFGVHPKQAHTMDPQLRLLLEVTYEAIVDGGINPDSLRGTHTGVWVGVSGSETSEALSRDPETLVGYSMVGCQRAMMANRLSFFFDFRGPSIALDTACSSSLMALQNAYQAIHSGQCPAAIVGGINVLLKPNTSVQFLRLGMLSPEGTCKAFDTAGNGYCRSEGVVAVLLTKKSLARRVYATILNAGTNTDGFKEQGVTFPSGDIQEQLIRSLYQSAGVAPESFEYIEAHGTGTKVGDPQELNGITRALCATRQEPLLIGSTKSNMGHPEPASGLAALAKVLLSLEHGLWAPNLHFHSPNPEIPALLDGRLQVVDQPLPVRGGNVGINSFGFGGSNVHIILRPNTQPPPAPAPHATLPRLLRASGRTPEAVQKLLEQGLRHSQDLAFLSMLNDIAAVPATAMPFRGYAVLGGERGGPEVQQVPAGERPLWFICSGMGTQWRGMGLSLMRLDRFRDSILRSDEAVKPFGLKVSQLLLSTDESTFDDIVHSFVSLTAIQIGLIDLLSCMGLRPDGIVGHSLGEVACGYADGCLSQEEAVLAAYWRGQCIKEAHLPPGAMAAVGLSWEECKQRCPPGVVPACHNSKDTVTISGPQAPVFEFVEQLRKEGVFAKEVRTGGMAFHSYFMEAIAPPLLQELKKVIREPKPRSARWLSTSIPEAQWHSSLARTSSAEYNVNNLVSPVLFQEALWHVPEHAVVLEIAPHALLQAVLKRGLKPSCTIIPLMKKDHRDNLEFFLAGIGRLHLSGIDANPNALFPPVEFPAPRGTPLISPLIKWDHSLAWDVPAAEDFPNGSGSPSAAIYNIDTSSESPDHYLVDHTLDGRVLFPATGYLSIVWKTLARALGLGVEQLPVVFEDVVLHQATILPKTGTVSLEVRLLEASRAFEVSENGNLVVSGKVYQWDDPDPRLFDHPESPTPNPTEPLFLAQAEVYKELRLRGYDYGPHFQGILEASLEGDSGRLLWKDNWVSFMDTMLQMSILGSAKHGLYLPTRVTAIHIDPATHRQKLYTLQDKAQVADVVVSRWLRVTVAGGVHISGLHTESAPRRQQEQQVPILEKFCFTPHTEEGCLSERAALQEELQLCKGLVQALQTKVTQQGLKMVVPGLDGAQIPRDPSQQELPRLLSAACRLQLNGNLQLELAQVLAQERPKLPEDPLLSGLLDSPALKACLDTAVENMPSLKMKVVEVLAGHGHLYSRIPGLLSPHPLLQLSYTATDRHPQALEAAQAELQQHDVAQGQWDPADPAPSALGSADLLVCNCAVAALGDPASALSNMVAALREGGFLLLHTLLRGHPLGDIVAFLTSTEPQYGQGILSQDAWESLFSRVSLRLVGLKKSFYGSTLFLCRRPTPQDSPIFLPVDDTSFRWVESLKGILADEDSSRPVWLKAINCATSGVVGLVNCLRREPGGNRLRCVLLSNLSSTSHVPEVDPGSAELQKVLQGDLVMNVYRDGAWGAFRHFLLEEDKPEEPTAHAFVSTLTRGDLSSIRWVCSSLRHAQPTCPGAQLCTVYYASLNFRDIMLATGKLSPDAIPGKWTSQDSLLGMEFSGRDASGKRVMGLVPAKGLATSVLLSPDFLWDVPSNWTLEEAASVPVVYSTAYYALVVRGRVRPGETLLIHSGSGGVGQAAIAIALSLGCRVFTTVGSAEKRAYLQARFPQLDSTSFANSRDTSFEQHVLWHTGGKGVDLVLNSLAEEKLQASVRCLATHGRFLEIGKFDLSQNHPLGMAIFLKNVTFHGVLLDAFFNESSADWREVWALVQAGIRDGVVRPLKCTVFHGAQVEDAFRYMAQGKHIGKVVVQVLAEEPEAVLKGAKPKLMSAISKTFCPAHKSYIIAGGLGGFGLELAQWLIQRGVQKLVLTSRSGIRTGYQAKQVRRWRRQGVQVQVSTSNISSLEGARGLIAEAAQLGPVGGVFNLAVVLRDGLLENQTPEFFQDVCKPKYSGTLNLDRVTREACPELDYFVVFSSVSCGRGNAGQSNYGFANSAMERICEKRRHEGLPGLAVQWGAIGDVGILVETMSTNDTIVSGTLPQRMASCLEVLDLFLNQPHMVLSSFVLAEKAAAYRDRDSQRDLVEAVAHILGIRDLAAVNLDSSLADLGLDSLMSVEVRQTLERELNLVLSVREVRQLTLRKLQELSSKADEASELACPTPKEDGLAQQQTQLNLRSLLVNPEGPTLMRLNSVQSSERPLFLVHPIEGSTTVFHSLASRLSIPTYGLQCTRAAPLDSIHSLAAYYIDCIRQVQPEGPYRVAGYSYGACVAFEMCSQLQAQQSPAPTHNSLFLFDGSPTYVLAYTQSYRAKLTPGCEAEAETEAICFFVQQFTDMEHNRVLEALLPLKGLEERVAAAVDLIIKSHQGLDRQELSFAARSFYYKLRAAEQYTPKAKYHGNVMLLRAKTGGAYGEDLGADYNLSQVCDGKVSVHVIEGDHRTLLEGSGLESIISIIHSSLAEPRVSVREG

Fatty acid synthase [2] = biological target: T2, Fatty acid synthase; assay: inhibition of human FAS-TE enzyme activity – biochemical, kinetic fluorescence intensity, dose response (AID 624326); format: functional;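 note: rate of fluorescence rise from hydrolysis of a fluorogenic O-methyl fluorescein ester substrate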
[3] = Luminescence Cell-Based Dose Retest to Confirm Inhibitors of Cancer Stem Cells. [Related pubchem assays (depositor defined):AID2717, AID2721]; format: functional; settings: Homo sapiens
Streptococcus = assay: GAS UMAA2166 growth inhibition – luminescence, BacTiterGlo, counter-screen for streptokinase expression inhibitor project, dose response (AID 1915); format: functional, organism-based;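 note: potency for reduction of bacterial viability or growth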
[4] = test system: Streptococcus sp. 'group A'; assay: Streptococcus pyogenes SK(-)GAS viability under kanamycin – luminescence, BacTiterGlo, confirmation, counter-screen for streptokinase expression inhibitor project, dose response (AID 1900); format: functional, organism-based
[5] = microbe, parasite or virus in culture; format: functional; settings: Mycobacterium tuberculosis
Large T antigen = Large T antigen (Simian virus 40, UniProt P03070); format: functional, Betapolyomavirus macacae;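 note: Confirmatory-stage PubChem screen for compounds that inhibit SV40 T antigen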
Chain of Large T antigen (P03070 whole entry): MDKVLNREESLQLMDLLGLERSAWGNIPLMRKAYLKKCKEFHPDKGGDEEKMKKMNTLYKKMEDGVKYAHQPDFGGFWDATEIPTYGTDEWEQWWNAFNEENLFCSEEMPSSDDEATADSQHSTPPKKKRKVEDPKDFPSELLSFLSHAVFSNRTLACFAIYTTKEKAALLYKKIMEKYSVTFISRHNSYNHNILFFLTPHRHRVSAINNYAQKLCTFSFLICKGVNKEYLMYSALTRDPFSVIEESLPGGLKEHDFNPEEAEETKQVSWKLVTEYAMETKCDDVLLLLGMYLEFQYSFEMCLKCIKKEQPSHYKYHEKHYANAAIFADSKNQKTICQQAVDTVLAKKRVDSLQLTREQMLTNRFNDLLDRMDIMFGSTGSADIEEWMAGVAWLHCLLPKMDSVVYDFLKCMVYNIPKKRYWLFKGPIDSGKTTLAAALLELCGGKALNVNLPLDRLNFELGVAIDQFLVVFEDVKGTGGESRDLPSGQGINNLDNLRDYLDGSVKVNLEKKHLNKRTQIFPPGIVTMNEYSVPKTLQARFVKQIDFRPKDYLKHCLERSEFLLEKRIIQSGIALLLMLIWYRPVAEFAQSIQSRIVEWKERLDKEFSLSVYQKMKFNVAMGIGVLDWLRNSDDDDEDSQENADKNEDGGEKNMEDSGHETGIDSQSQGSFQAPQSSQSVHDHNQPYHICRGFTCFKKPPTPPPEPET

cells [6] = format: functional, cell-based
cells [7] = format: functional, cell-based; remark: listed apart in the source
[8] = non-specific 3'UTR reporter inhibition in Clone20-Shn3RL – cell-based, Renilla luciferase, cherry-picked, counter-screen for Shn3 inhibitor project, dose response (AID 624133); format: functional
[9] = loss of viability in HepG2 cells – cell-based, CellTiter-Glo, cherry-picked, cytotoxicity control for Shn3 inhibitor project, dose response (AID 624134); format: functional
[10] = reduction of Shn3 3'UTR-driven luciferase in osteoblasts – cell-based, Clone20 osteoblasts, firefly luciferase, cherry-picked, dose response (AID 624132); format: functional;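 note: firefly luciferase luminescence from reporter carrying the Shn3 3'UTR in osteoblasts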
[11] = luciferase reporter signal suppression in cells – H4 neuroglioma cells, luminescence, dose response (AID 1990); format: functional, cell-based
[12] = Luminescence Cell-Based Dose Response HTS to Identify Inhibitors of 5'UTR Stem-Loop Driven Prion Protein mRNA Translation in H4 Neuroglioblastoma Cells. [Related pubchem assays: 1827 (Project Summary), 1813 (Primary HTS)]; format: functional
[13] = alpha-synuclein stem-loop luciferase translation blockers – H4 neuroglioma cells, luminescence, confirmation (AID 1988); format: functional, cell-based
HEK293 = assay: EBV LMP1 TES2 canonical NF-kB signalling blockers – cell-based, HEK293, luciferase, cherry-pick, dose response (AID 588343); format: functional; settings: Homo sapiens
Protein skinhead-1 = biological target: T3, Protein skinhead-1 (Caenorhabditis elegans, UniProt P34707); format: functional
T3 sequence (P34707 whole entry): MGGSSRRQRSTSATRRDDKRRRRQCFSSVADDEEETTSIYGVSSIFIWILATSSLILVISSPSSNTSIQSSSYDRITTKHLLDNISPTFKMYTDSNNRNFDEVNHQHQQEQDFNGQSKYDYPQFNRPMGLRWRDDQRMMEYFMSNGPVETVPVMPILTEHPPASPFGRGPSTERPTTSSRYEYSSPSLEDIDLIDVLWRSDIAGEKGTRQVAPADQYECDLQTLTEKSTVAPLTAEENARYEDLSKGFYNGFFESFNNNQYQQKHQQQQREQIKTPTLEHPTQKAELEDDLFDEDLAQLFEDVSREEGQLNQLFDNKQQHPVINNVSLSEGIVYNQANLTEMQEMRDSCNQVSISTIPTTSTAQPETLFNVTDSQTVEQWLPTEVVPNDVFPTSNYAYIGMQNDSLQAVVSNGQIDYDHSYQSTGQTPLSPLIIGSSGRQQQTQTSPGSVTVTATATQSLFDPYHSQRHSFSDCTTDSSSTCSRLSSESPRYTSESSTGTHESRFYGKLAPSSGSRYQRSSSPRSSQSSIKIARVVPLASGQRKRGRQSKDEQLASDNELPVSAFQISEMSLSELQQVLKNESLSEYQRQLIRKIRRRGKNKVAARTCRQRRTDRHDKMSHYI

INS1 = assay: INS-1E survival protection against cytokine death – cell-based, luminescence, retest, dose response (AID 449756); format: functional; settings: Rattus norvegicus;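 note: cell death triggered by IL-1 beta plus TNF-alpha plus IFN-gamma mixture; protective hits raise ATP signal compared with cytokine alone wells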
[14] = biological target: T4, Heat shock factor protein 1 (Mus musculus, UniProt P38532); assay: enhancement of HSF1-driven luciferase signal – cell-based, NIH3T3, luminescence, dose retest, confirmation (AID 435004); format: functional;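 note: stress induced by proteasome inhibitor MG132 added 30 min after compound; luciferase reporter driven by HSF1 response element in NIH3T3 cells; actives raise luminescence as potentiators of the MG132 stress response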
T4 sequence (P38532 whole entry): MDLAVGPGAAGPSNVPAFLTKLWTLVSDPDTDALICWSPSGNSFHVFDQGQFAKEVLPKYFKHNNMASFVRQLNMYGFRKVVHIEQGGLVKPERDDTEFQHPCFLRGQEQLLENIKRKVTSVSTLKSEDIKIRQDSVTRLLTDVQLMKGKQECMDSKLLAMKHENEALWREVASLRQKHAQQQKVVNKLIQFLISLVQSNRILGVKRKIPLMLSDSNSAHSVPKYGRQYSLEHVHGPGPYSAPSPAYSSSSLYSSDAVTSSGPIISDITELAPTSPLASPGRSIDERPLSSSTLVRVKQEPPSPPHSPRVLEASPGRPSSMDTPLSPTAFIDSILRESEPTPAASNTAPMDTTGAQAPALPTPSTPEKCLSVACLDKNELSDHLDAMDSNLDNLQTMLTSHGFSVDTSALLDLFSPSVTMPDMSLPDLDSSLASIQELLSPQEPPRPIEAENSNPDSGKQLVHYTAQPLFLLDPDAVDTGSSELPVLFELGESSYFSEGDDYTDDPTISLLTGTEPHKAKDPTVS

SN12K1 = assay: cells; format: functional; settings: Homo sapiens
P388/ADR = assay: cells; format: functional; settings: Mus musculus
P388 = assay: cells; format: functional; settings: Mus musculus
[15] = Trypanosoma cruzi growth suppression in host cells – NIH3T3 host cells, beta-gal luminescence, confirmation (AID 2044); format: functional, cell-based;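 note: intracellular parasites grown in NIH/3T3 mouse fibroblasts as host cells; luminescent beta-galactosidase reporter signal from transgenic T. cruzi replicating inside host cells; inhibitors lower the luminescence signal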
[16] = NIH3T3 cell viability loss – ATP luminescence, mouse fibroblasts, counter-screen, dose response (AID 2010); format: functional, cell-based;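 note: cells exposed to compound for about 90 hours before reading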

N#Cc1c(-c2ccccc2)c(-c2ccccc2)nn(CC(=O)NNC(=O)Nc2ccc(Cl)c(Cl)c2)c1=O
EC50 (Streptokinase A): 4 µM (active)
IC50 (Fatty acid synthase [1]): 7.91 µM (active)
IC50 (Fatty acid synthase [2]): 8.07 µM (active)
AC50 [3]: 1.75 µM (active)
EC50 (Streptococcus): 103 µM (active)
EC50 [4]: 5.78 µM (active)
CC50 [5]: 32.9 µM (active)

Oc1ccc(N2CCN(C(c3ccccn3)c3nnnn3C3CCCC3)CC2)cc1 (configuration not stated)
IC50 (Large T antigen): 6.25 µM (active)

N#Cc1ccccc1S(=O)(=O)N1CCN(c2cnccn2)CC1
EC50 (cells [6]): > 350 µM (not active)
EC50 (cells [7]): > 350 µM (not active)

Cc1ccc(-n2ncc3c(N4CCN(c5ccc(F)cc5)CC4)ncnc32)c(C)c1
AC50 [8]: 5.66 µM (active)
AC50 [9]: 2.94 µM (active)
AC50 [10]: 3.24 µM (active)

O=Cc1cccn1-c1ccc(O)cc1
IC50 (Large T antigen): > 100 µM (active)

O=S(=O)(c1ccc(C(F)(F)F)cc1)N1CCC(c2nc(O)c3nnn(Cc4ccc(F)cc4)c3n2)CC1
EC50 (cells [6]): > 350 µM (not active)
EC50 (cells [7]): > 350 µM (not active)

O=C(Nc1cnc2ccccn2c1=O)c1ccc(Cl)cc1Cl
EC50 [11]: 10.1 µM (inconclusive)
EC50 [12]: 5 µM (active)
EC50 [13]: 5.78 µM (active)
AC50 (HEK293): 2.55 µM (active)

CCCn1cnc2cc(NCc3cccc(OC)c3O)ccc21
IC50 (Large T antigen): 22.1 µM (active)
IC50 (Protein skinhead-1): > 100 µM (inactive)

COC(=O)C1=C(c2ccc(-c3ccccc3)c(F)c2)C[C@@H]2CC[C@H]1N2C(=O)NCC1CC1
AC50 [8]: 30.6 µM (active)
AC50 [9]: > 70 µM (inactive)
AC50 [10]: 4.32 µM (active)

Cc1ccccc1/C=C/C(=O)c1ccc([N+](=O)[O-])o1
EC50 (Streptokinase A): 50.9 µM (inconclusive)
AC50 (INS1): 3.15 µM (active)
EC50 (Streptococcus): 10.6 µM (active)
EC50 [4]: 2.37 µM (active)
IC50 (Large T antigen): 83.2 µM (active)

CN1CCN(S(=O)(=O)c2ccc(Sc3nnnn3-c3ccccc3)c([N+](=O)[O-])c2)CC1
AC50 [8]: 7.28 µM (active)
AC50 [9]: > 70 µM (inactive)
AC50 [10]: 3.9 µM (active)

Cc1ccc(C(CC(=O)O)C2CCOC(C)(C)C2)cc1 (configuration not stated)
EC50 (cells [6]): > 350 µM (not active)
EC50 (cells [7]): > 350 µM (not active)

c1cnc(N2CCN(c3ccc4ccccc4n3)CC2)nc1
EC50 (cells [6]): 11.9 µM (active)
EC50 [14]: > 260 µM (inactive)
EC50 (cells [7]): > 350 µM (not active)

O=S(=O)(c1cccc(C(F)(F)F)c1)N1CCC(c2nc(O)c3nnn(Cc4cccc(F)c4)c3n2)CC1
EC50 (cells [6]): > 350 µM (not active)
EC50 (cells [7]): > 350 µM (not active)

COCCn1c(SCC(=O)NCc2ccco2)nnc1-c1c[nH]c2ccccc12
AC50 (HEK293): 283 µM (active)

Cc1ccc(C(=O)Nc2sc(Cc3ccc4c(c3)OCO4)c(C)c2C(N)=O)cc1
AC50 (HEK293): 130 µM (active)

CC(C)C1C(=O)N(Cc2cn(CCC3OCCO3)nn2)CCS(=O)(=O)N1Cc1ccc(-c2ccc(Cl)c(Cl)c2)cc1 (configuration not stated)
AC50 [8]: 3.36 µM (active)
AC50 [9]: > 70 µM (inactive)
AC50 [10]: 1.28 µM (active)

CCOC(=O)CNC(=O)N(CC)C12CC3CC(CC(C3)C1)C2
GI50 (SN12K1): 109 µM (inactive)
GI50 (P388/ADR): 131 µM (inactive)
GI50 (P388): 79.1 µM (inactive)

O=C1c2cccc3cc4ccccc4c(c23)C(=O)N1CCNCCN1C(=O)c2cccc3cc4ccccc4c(c23)C1=O
GI50 (SN12K1): 1.91 µM (inactive)
GI50 (P388/ADR): 0.16 µM (active)
GI50 (P388): 0.27 µM (active)

NC(=S)N/N=C/c1ccc(OC(=O)COc2ccccc2Cl)cn1
GI50 (SN12K1): 9.29 µM (inactive)
GI50 (P388/ADR): 4.97 µM (inactive)
GI50 (P388): 3.31 µM (inactive)

CSc1sc(=S)sc1SC
GI50 (SN12K1): > 63.1 µM (inactive)
GI50 (P388/ADR): > 100 µM (inactive)
GI50 (P388): 60.8 µM (inactive)

C=C(NC(=O)C(=C)NC(=O)c1csc(C2=NC3c4csc(n4)C4NC(=O)c5csc(n5)C(C(C)(O)C(C)O)NC(=O)C5CSC(=N5)/C(=C/C)NC(=O)C(C(C)O)NC(=O)c5csc(n5)C3(CC2)NC(=O)C(C)NC(=O)C(=C)NC(=O)C(C)NC(=O)C(C(C)CC)NC2C=Cc3c(C(C)O)cc(nc3C2O)C(=O)OC4C)n1)C(N)=O (configuration not stated)
GI50 (SN12K1): 0.968 µM (active)
GI50 (P388/ADR): 1.27 µM (inactive)
GI50 (P388): 0.0407 µM (active)

CCC1OC(=O)C(C)C(OC2CC(C)(O)C(O)C(C)O2)C(C)C(O)C(C)(O)CC(C)C(=O)C(C)C(O)C1C (configuration not stated)
GI50 (SN12K1): > 300 µM (inactive)
GI50 (P388/ADR): > 300 µM (inactive)
GI50 (P388): > 300 µM (inactive)

COc1cc(/C=N/NC(=O)c2nnn(-c3nonc3N)c2-c2cccs2)ccc1O
IC50 (Large T antigen): 19.4 µM (active)

COc1cc(/C=N/NC(=O)C2COc3ccccc3O2)ccc1O (configuration not stated)
IC50 (Large T antigen): 8.24 µM (active)

O=C(O)c1cc(N/N=C/c2cccc3ccccc23)ccc1Cl
IC50 (Large T antigen): > 100 µM (active)

Cc1cccc(/C=N\NC(=O)c2ccc(Cl)cc2)c1O
EC50 [15]: 0.877 µM (active)
AC50 (INS1): 0.597 µM (active)
EC50 (cells [6]): 6.37 µM (active)
EC50 [14]: 91 µM (active)
EC50 (cells [7]): > 350 µM (not active)
EC50 [16]: 9.57 µM (active)
